From PMC6271975, “Structure-Activity Relationship Study of Sesquiterpene Lactones and Their Semi-Synthetic Amino Derivatives as Potential Antitrypanosomal Products” (Molecules, 2014)
“Also recorded” adds a separate entry of the source. Where a name gives a salt, the structure may show the parent alone. Read-outs that look alike come from different tables or passages of the source.

Experiments:
[1] = test system: T. b. rhodesiense STIB 900 bloodstream forms; test: In vitro antitrypanosomal Alamar Blue assay; format: cell-based, Trypanosoma brucei rhodesiense; conditions: Trypanosoma brucei; 70 h incubation; average of three independent assays; read-out: T. brucei STIB 900 IC50
Procedure: Evaluation of in vitro antiprotozoal activity against T. b. rhodesiense was done using the Alamar Blue assay to determine IC50s as previously described. Serial threefold dilution were prepared in 96-well micro titre plates, and 4000 T. b. rhodesiense STIB 900 bloodstream forms in 50 μL were added to each well except for the negative controls. Melarsoprol (Arsobal®, purity > 95%, Sanofi-Aventis, Meyrin, Switzerland) was used as reference drugs. […] The IC50 values were calculated from the sigmoidal growth inhibition curves using Softmax Pro software (Molecular Devices).

[2] = test system: T. b. rhodesiense STIB900; test: Acute mouse sleeping sickness model (STIB 900); format: in vivo, NMRI mice; conditions: for signs of toxicity in mice: acute mouse model; for survival: po, average of all mice, untreated controls euthanized at day 10 post infection
Procedure: This model mimics the first stage of the human African trypanosomiasis. Adult female NMRI mice were purchased from Janvier (St. Berthevin, France). They weighed between 20 and 25 g at the beginning of the study and were kept under standard conditions at 22 °C and 60%–70% humidity in macrolon type III cages with food pellets and water ad libitum. […] The samples were first dissolved in 100% DMSO, followed by addition of distilled H2O to a final DMSO concentration of 10%. For determination of the in vivo antitrypanosomal activity, mice were infected intraperitoneally with 1 × 10^4 STIB900 bloodstream forms. Experimental groups of four mice were treated orally once a day on four consecutive days from day 3 to day 6 post infection. A control group of four mice was infected, but remained untreated. The determination of the parasitaemia was done on day 7 post infection. […] Five μL of this mixture were transferred to a glass slide and covered with an 18 × 18 mm cover slide. The sample was examined under a light microscope (200-fold magnification) and parasites were counted in 3 of the 16 squares of the grid.

[3] = test system: rat skeletal myoblasts (L6-cells); test: cells; format: cell-based; conditions: Rattus norvegicus, L6; cytotoxicity; 70 h incubation; average of three independent assays; read-out: L6 cells IC50
Procedure: The cytotoxicity assay was performed with rat skeletal myoblasts (L6-cells) seeded in 100 μL RPMI 1640 in 96-well micro titre plates, using the Alamar Blue assay described above. After 24 h the medium was removed and replaced by 100 μL of fresh RPMI 1640 with serial threefold drug dilution. Podophyllotoxin (purity > 95%, Sigma-Aldrich) was used as a reference drug. After 70 h of incubation under a humidified 5% CO2 atmosphere, 10 μL of the Alamar blue marker (see above) was added to all wells. The plates were incubated for an additional 2 h. A Spectramax Gemini XS micro plate fluorescence reader (Molecular Devices) was used to read the plates using an excitation wavelength of 536 nm and an emission wavelength of 588 nm. The IC50s were calculated from the sigmoidal growth inhibition curves using Softmax Pro software (Molecular Devices).

[4] = test system: rat skeletal myoblasts (L6-cells); design: method as in PMID 22331812, PMID 24080104, PMID 21624443, PMID 22396915; conditions: cytotoxicity; previously reported compounds included for comparison; cited from earlier work
[5] = test system: T. b. rhodesiense STIB900; design: method as in PMID 22331812, PMID 24080104; conditions: intraperitoneal, 10 mg/kg/b.i.d. for four consecutive days; cited from earlier work
[6] = test system: T. b. rhodesiense STIB 900 bloodstream forms; design: method as in PMID 22331812, PMID 24080104, PMID 21624443, PMID 22396915; conditions: cited from earlier work

SMILES | IC50 [1] | signs of toxicity in mice ([2]; oral administration) | in vivo efficacy ([2]; oral administration, mean survival time versus control) | survival ([2]; 4 × 25 mg/kg) | survival ([2]; 4 × 50 mg/kg) | IC50 [3] | parasitemia on day 7 after infection ([2]; oral, 50 mg/kg body weight/day, four mice) | IC50 [4] | cure of mice [5] | parasitemia [5] | SI (Selectivity Index) ([6]; IC50 against L6 cells divided by IC50 against STIB 900 strain, previously reported compounds) | IC50 ([6]; previously reported compounds included for comparison, compound 9 tested once, read-out: T. brucei STIB 900 IC50)
C=C(CO)C(=O)OC1CC(=C)C2CC(O)C(=C)C2C2OC(=O)C(CN(C)C)C12 (centres unmarked) [Compound 19, Cynaropicrin dimethylamine adduct hydrochloride] | 0.5 ± 0.003 µM | less signs of toxicity | no in vivo efficacy; also recorded: did not show any in vivo efficacy | 8.5 days | 10 days | 5.2 ± 1.3 µM |  |  |  |  |  | 
C=C(CO)C(=O)O[C@H]1CC(=C)[C@@H]2C[C@H](O)C(=C)[C@@H]2[C@H]2OC(=O)C(=C)[C@@H]21 [Compound 1, Cynaropicrin] |  | euthanized on day 10 post infection due to obvious signs of cytotoxicity |  |  | 9.5 days |  | reduced parasitemia | 2.2 ± 0.3 µM | not able to cure the mice | parasitemia was decreased over several days | 7.8 | 0.3 ± 0.001 µM
